The test system of one assay is E. coli. Kind of assay: Inhibition zone test. The class given is cell-based, Escherichia coli. The conditions noted are these: 20 μL of 64 μM peptide in PBS pH 7.4 on 6 mm filter paper, solid LB plate, 37 °C, 24 h. How it is done: (§1) Gram-negative bacteria, including Escherichia coli and Aeromonas hydrophila, and Gram-positive bacteria, including Micrococcus luteus and Bacillus simplex were used for antibacterial analyses. The strains were incubated in fresh LB medium overnight at 37 °C for E. coli, M. luteus and 28 °C for A. hydrophila, B. simplex.
(§2) The antibacterial activities of LBD peptides were examined by inhibition zone test. The overnight cultures of bacteria were diluted 100 times and cultured in LB medium at 37 °C (E. coli and M. luteus) or 28 °C (A. hydrophila and B. simplex) for 6 h. These cultures were then diluted 100 times with LB medium separately, and 200 μL solutions from each diluted cultures was taken out and spread on the solid LB medium plate uniformly. Sterile filter paper with a diameter of 6 mm was put on the surface of solid LB medium gently. Twenty microliters of 64 μM peptide solution dissolved in PBS (pH 7.4) was added to the center of filter paper with a diameter of 6 mm. Twenty microliters PBS and 20 μL of 64 μM pGFP peptide were used as negative controls. […] ampicillin solutions was used as the positive control for E. coli, M. luteus and B. simplex culture, and 50 μM kanamycin sulfates was used as the positive control for A. hydrophila culture. The plates were cultured at 37 °C (E. coli and M. luteus) or 28 °C (A. hydrophila and B. simplex) for 24 h.

Another assay concerns M. luteus. Briefly: Inhibition zone test. The class given is cell-based, Micrococcus luteus. As to conditions: 20 μL of 64 μM peptide in PBS pH 7.4 on 6 mm filter paper, solid LB plate, 37 °C, 24 h. How it is done:
as §1, §2

The next assay concerns WSSV. Kind of assay: Antiviral activity detection: WSSV pre-incubated with peptide injected into E. carinicauda, in vivo WSSV copy number. Details: species or system Exopalaemon carinicauda. The conditions noted are these: E. carinicauda pleopods, 24 h post injection; WSSV (10^3 copies/μL) pre-incubated 2 h at room temperature with 50 μM peptide, 10 μL injected; VP28 real-time PCR; n = 15; WSSV group 1.21 × 10^5, blank 1.31 × 10^3. The method, then:
Exopalaemon carinicauda is being regarded as a good crustacean model animal for WSSV infection experiments. In this study, healthy E. carinicauda with a body length of 5.43 ± 0.30 cm and a body weight of 2.62 ± 0.42 g were used as experimental animals for WSSV infection assay. Animals were acclimatized in the aerated seawater at 25 °C for 1 day before experiments.
In order to learn the effect of synthetic LBD peptides on WSSV infection, WSSV pre-incubated with different peptides was injected into E. carinicauda and the WSSV copy number in the pleopods of E. carinicauda was detected. E. carinicauda was classified into 13 groups and each group contained 18 to 20 individuals. The 13 groups were named as Blank, WSSV, pGFP, LBD1, LBD2, LBD3, LBD4, LBD5, LBD6, LBD7, sLBD2, LBD2-K and LBD4+K, respectively. Synthetic peptides were diluted into 50 μM with PBS (pH 7.4). WSSV was incubated with each peptide solution for 2 h at room temperature with a final concentration 10^3 copies/μL. […] For WSSV group, each shrimp was injected with 10 μL WSSV incubated with PBS (pH 7.4) for 2 h at room temperature. For the other groups (LBD1–LBD7, sLBD2, LBD2-K and LBD4+K), each shrimp was injected with 10 μL of WSSV solution after incubation with corresponding synthetic peptides, respectively. At 24 h post injection (hpi), the pleopods of 15 shrimps in each group were collected and the pleopods from three individuals were put together as one sample. Total DNA of each sample was extracted using the Genomic DNA Kit (Tiangen, China). The viral copy number was measured by detecting the level of VP28 using real-time PCR as described previously.

The subject of a further assay is A. hydrophila. Kind of assay: Inhibition zone test. As to conditions: 20 μL of 64 μM peptide in PBS pH 7.4 on 6 mm filter paper, solid LB plate, 28 °C, 24 h. It counts as cell-based, Aeromonas hydrophila. How it is done:
as §1, §2

Where a SMILES comes first, the peptide text is derived from it.

Data on 9 molecules can be found in publication PMC4446596, “Functional Diversity of Anti-Lipopolysaccharide Factor Isoforms in Shrimp and Their Characters Related to Antiviral Activity” (Marine Drugs, 2015).

In the case of `CSCC[C@@H]1NC(=O)[C@H](CCCNC(=N)N)NC(=O)CNC(=O)[C@H](CCCCN)NC(=O)[C@H](Cc2ccccc2)NC(=O)[C@H](Cc2ccc(O)cc2)NC(=O)[C@H](CC(C)C)NC(=O)[C@H](CCC(=O)O)NC(=O)[C@H](Cc2ccccc2)NC(=O)[C@H](CO)NC(=O)[C@H](CCCCN)NC(=O)[C@H](C(C)C)NC(=O)[C@H]([C@@H](C)O)NC(=O)[C@@H]2CCCN2C(=O)[C@H]([C@@H](C)O)NC(=O)[C@H](C(C)C)NC(=O)[C@H](CO)NC(=O)[C@H](Cc2ccc(O)cc2)NC(=O)[C@H]([C@@H](C)O)NC(=O)[C@@H](NC(=O)[C@H](CCC(N)=O)NC(C)=O)CSSC[C@@H](C(=O)N2CCC[C@H]2C(N)=O)NC(=O)[C@H](CO)NC1=O` [LBD1] (HELM PEPTIDE1{[ac].Q.C.T.Y.S.V.T.P.T.V.K.S.F.E.L.Y.F.K.G.R.M.S.C.P.[am]}$PEPTIDE1,PEPTIDE1,3:R3-24:R3$$$V2.0), the Inhibition zone result in the assay with E. coli is reported as “apparent inhibition zones”; in the assay with M. luteus, “Obvious inhibition zones”. In the assay on WSSV, the WSSV copy number is listed as 4.36 × 10^3 copies/ng DNA.

In the case of `CC[C@H](C)[C@@H]1NC(=O)[C@H](Cc2ccccc2)NC(=O)[C@H](Cc2ccc(O)cc2)NC(=O)[C@H](CC(C)C)NC(=O)[C@H](CCC(N)=O)NC(=O)[C@H](Cc2c[nH]c3ccccc23)NC(=O)[C@H](CCCNC(=N)N)NC(=O)[C@H](CCC(N)=O)NC(=O)[C@H](Cc2ccccc2)NC(=O)[C@H]([C@@H](C)O)NC(=O)[C@@H]2CCCN2C(=O)[C@H](CCCCN)NC(=O)[C@H](C(C)C)NC(=O)[C@H](CO)NC(=O)[C@H](Cc2ccc(O)cc2)NC(=O)[C@H](C(C)C)NC(=O)[C@@H](NC(=O)[C@H](Cc2ccc(O)cc2)NC(C)=O)CSSC[C@@H](C(=O)N2CCC[C@H]2C(N)=O)NC(=O)[C@H](Cc2c[nH]c3ccccc23)NC(=O)[C@H](CCSC)NC(=O)[C@H](CO)NC(=O)CNC1=O` [LBD3] (HELM PEPTIDE1{[ac].Y.C.V.Y.S.V.K.P.T.F.Q.R.W.Q.L.Y.F.I.G.S.M.W.C.P.[am]}$PEPTIDE1,PEPTIDE1,3:R3-24:R3$$$V2.0), the Inhibition zone result in the assay on M. luteus is reported as “Obvious inhibition zones”. Also, in the assay with WSSV, the WSSV copy number is reported as 1.19 × 10^5 copies/ng DNA.

With `CSCC[C@@H]1NC(=O)[C@H](CCCNC(=N)N)NC(=O)CNC(=O)[C@H](CC(N)=O)NC(=O)[C@H](Cc2ccccc2)NC(=O)[C@H](Cc2ccc(O)cc2)NC(=O)[C@H](CC(C)C)NC(=O)[C@H](CCC(=O)O)NC(=O)[C@H](Cc2c[nH]c3ccccc23)NC(=O)[C@H](CCCNC(=N)N)NC(=O)[C@H](Cc2ccc(O)cc2)NC(=O)[C@H](Cc2ccccc2)NC(=O)[C@H](CO)NC(=O)[C@@H]2CCCN2C(=O)[C@H](CCCNC(=N)N)NC(=O)[C@H](CCC(N)=O)NC(=O)[C@H](CO)NC(=O)[C@H](Cc2ccc(O)cc2)NC(=O)[C@H](CCCNC(=N)N)NC(=O)[C@@H](NC(=O)[C@H](CO)NC(C)=O)CSSC[C@@H](C(=O)N2CCC[C@H]2C(N)=O)NC(=O)[C@H](Cc2c[nH]c3ccccc23)NC1=O` [LBD4] (HELM PEPTIDE1{[ac].S.C.R.Y.S.Q.R.P.S.F.Y.R.W.E.L.Y.F.N.G.R.M.W.C.P.[am]}$PEPTIDE1,PEPTIDE1,3:R3-24:R3$$$V2.0), in the assay with E. coli, the Inhibition zone result is recorded as “apparent inhibition zones”. In addition, the WSSV copy number with WSSV is reported as 7.24 × 10^4 copies/ng DNA.

As for `CC(=O)N[C@@H](Cc1ccc(O)cc1)C(=O)N[C@H]1CSSC[C@@H](C(=O)N2CCC[C@H]2C(N)=O)NC(=O)[C@H](CCCCN)NC(=O)[C@H](CC(C)C)NC(=O)[C@H](CCC(=O)O)NC(=O)[C@H](C)NC(=O)[C@H](CCCNC(=N)N)NC(=O)[C@H](Cc2ccc(O)cc2)NC(=O)[C@H](Cc2c[nH]cn2)NC(=O)[C@H](C(C)C)NC(=O)[C@H](CCC(=O)O)NC(=O)[C@H](CC(C)C)NC(=O)[C@H](CCCCN)NC(=O)[C@H](CCCCN)NC(=O)[C@H](CC(C)C)NC(=O)[C@H](Cc2ccc(O)cc2)NC(=O)[C@@H]2CCCN2C(=O)[C@H](CO)NC(=O)[C@H](CCCNC(=N)N)NC(=O)[C@H](CO)NC(=O)[C@H](CC(C)C)NC(=O)[C@H](CC(C)C)NC1=O` [LBD5] (HELM PEPTIDE1{[ac].Y.C.L.L.S.R.S.P.Y.L.K.K.L.E.V.H.Y.R.A.E.L.K.C.P.[am]}$PEPTIDE1,PEPTIDE1,3:R3-24:R3$$$V2.0), the WSSV copy number with WSSV is 2.07 × 10^3 copies/ng DNA.

On to `CC[C@H](C)[C@@H]1NC(=O)[C@H](Cc2ccccc2)NC(=O)[C@H](Cc2ccc(O)cc2)NC(=O)[C@H](CC(C)C)NC(=O)[C@H](CCC(=O)O)NC(=O)[C@H](Cc2ccccc2)NC(=O)CNC(=O)[C@H](CCC(N)=O)NC(=O)[C@H]([C@@H](C)CC)NC(=O)[C@H](CC(=O)O)NC(=O)[C@@H]2CCCN2C(=O)[C@H](CCCCN)NC(=O)[C@H](C(C)C)NC(=O)[C@H](CO)NC(=O)[C@H](Cc2ccc(O)cc2)NC(=O)[C@H](CO)NC(=O)[C@@H](NC(=O)[C@H](CO)NC(C)=O)CSSC[C@@H](C(=O)N2CCC[C@H]2C(N)=O)NC(=O)[C@H]([C@@H](C)O)NC(=O)[C@H](C(C)C)NC(=O)[C@H](CO)NC(=O)CNC1=O` [LBD6] (HELM PEPTIDE1{[ac].S.C.S.Y.S.V.K.P.D.I.Q.G.F.E.L.Y.F.I.G.S.V.T.C.P.[am]}$PEPTIDE1,PEPTIDE1,3:R3-24:R3$$$V2.0), for which the Inhibition zone entry in the assay on E. coli is on record as “apparent inhibition zones”. In the assay with WSSV, the WSSV copy number is on record as 1.55 × 10^5 copies/ng DNA.

As for `CC[C@H](C)[C@@H]1NC(=O)[C@H](Cc2ccc(O)cc2)NC(=O)[C@@H]2CCCN2C(=O)[C@H](CCCCN)NC(=O)[C@H](C(C)C)NC(=O)[C@H]([C@@H](C)O)NC(=O)[C@H](Cc2ccccc2)NC(=O)[C@H](CCCCN)NC(=O)[C@@H](NC(=O)[C@H](CCC(=O)O)NC(C)=O)CSSC[C@@H](C(=O)N2CCC[C@H]2C(N)=O)NC(=O)[C@H](Cc2c[nH]c3ccccc23)NC(=O)[C@H](CCSC)NC(=O)[C@H](CCCNC(=N)N)NC(=O)CNC(=O)[C@H](CCCCN)NC(=O)[C@H](Cc2ccc(O)cc2)NC(=O)[C@H](Cc2ccc(O)cc2)NC(=O)[C@H](CC(C)C)NC(=O)[C@H](CCC(N)=O)NC(=O)[C@H](Cc2ccccc2)NC(=O)[C@H](CCCNC(=N)N)NC(=O)[C@H](CCCCN)NC1=O` [LBD7] (HELM PEPTIDE1{[ac].E.C.K.F.T.V.K.P.Y.I.K.R.F.Q.L.Y.Y.K.G.R.M.W.C.P.[am]}$PEPTIDE1,PEPTIDE1,3:R3-24:R3$$$V2.0), the Inhibition zone entry in the assay on E. coli is “apparent inhibition zones”; in the assay on A. hydrophila it was “exhibited inhibition zones”. The WSSV copy number in the assay on WSSV is 5.07 × 10^3 copies/ng DNA.

As to “Ac-FKRWQLYFRG-NH2 [sLBD2, a part (ten amino acid residues) of LBD]”, the WSSV copy number with WSSV is 4.04 × 10^3 copies/ng DNA.

Regarding “Ac-S(CRYSQRPSFKRWELYFNGRMWC)P-NH2 (disulfide) [LBD4+K, same as LBD4 except for the replacement of a tyrosine residue by a lysine residue]”, the WSSV copy number in the assay on WSSV is given as 3.40 × 10^3 copies/ng DNA.

Take “Ac-Y(CSFNVTPKFQRWQLYFRGRMWC)P-NH2 (disulfide) [LBD2-K, same as LBD2 except for the replacement of a lysine residue by a glutamine residue]”: in the assay with WSSV, the WSSV copy number is 5.14 × 10^4 copies/ng DNA.
